Laboratory results taken from US11541029B2, “High penetration compositions and their applications” (Techfields Pharma Co., Ltd., priority 2008, dated 2023).

Assays:
[1] = system: SLAC/DB/DB obese mice; assay: Blood glucose and blood lipid levels in DB/DB mice; format: in vivo; details: 30 mg/kg transdermally once per day
Summary of the method: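 SLAC/DB/DB mice aged 10-12 weeks, n=7, dosed transdermally at 30 mg/kg in 25% ethanol onto a shaved 4 cm^2 back area once daily at 8 am for 5 weeks. Blood glucose measured weekly; blood lipids every other week.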

[2] = system: carotid artery thrombosis; assay: Thrombosis/stroke induced by electrical stimulation of carotid artery; format: in vivo, rats (Spragu Dawley)
Method: Thrombosis was induced by electrical stimulation (1 mA for 3 minutes) of the carotid artery in rats by using a thrombosis formation instrument (YLS-14A, Shandong Academy of Medical Sciences, Shandong, China). […] In group B, 100 mg/kg of diethylaminoethyl acetylsalicylate.HCl salt (10% in water) was applied to the shaved back skin of the rats (˜9 cm^2, fur was cut off) 2 hour before the operation and 1 hour after the operation, then 50 mg/kg of the HPC was applied to the back of the rats twice per day. In group C, 50 mg/kg of diethylaminoethyl acetylsalicylate.HCl was applied to the back of the rats twice per day starting from 24 hours after the operation. The recovery of motor functions of rats was evaluated every day.

[3] = Amount of salicylic acid in rat cerebrospinal fluid (CSF), 0.3 mmol/kg; format: in vivo, rats
Method: 27 male rats were divided into 4 groups […]. […] Amounts of salicylic acid in rat CSF were determined.

[4] = group B: 100 mg/kg 2 hour before and 1 hour after operation, then 50 mg/kg twice per day
[5] = group C: 50 mg/kg twice per day starting 24 hours after the operation

**Q.** With `CCN(CC)CCOC(=O)c1ccccc1OC(C)=O.Cl` [P-1, diethylaminoethyl acetylsalicylate.HCl salt] as the compound, how does the “Cholesterol (total), Day 1” value [1] read?
**A.** 7.1 ± 0.4 mmol/L

**Q.** And the “Cholesterol (total), Week 5” value [1]?
**A.** 4.1 ± 0.4 mmol/L

**Q.** What about the “Triglycerides, Day 1” value [1] of the same compound?
**A.** 4.1 ± 0.5 mmol/L

**Q.** What about the “Triglycerides, Week 5” value [1] of the same compound?
**A.** 1.5 ± 0.3 mmol/L

**Q.** What about the “blood glucose, Day 1” value [1] of the same compound?
**A.** 14.1 ± 2.6 mmol/L

**Q.** And the “blood glucose, Week 5” value [1]?
**A.** 6.8 ± 2.8 mmol/L

**Q.** And the “Stroke-free rats (2 hours)” value [2, 4]?
**A.** 8/10

**Q.** And the “Stroke-free rats (1 day)” value [2, 4]?
**A.** 9/10

**Q.** What about the “Stroke-free rats (7 days)” value [2, 4] of the same compound?
**A.** 10/10

**Q.** What about the “Stroke-free rats (3 hrs)” value [2, 5] of the same compound?
**A.** 0/10

**Q.** And the “Stroke-free rats (2 day)” value [2, 5]?
**A.** 4/10

**Q.** And the “Stroke-free rats (7 day)” value [2, 5]?
**A.** 9/10

**Q.** What about the “Stroke-free rats (14 days)” value [2, 5] of the same compound?
**A.** 10/10

**Q.** What about the “Weight Loss (3 days)” value [2, 5] of the same compound?
**A.** −13 +/− 7%

**Q.** What about the “Weight Loss (7 days)” value [2, 5] of the same compound?
**A.** −7 +/− 4%

**Q.** And the “Weight Loss (14 days)” value [2, 5]?
**A.** −4 +/− 2%

**Q.** What about the bleeding problem ([2]; post-stroke treatment) of the same compound?
**A.** without bleeding problem

**Q.** And the “salicylic acid in CSF” value ([3]; intramuscularly, 1 hour)?
**A.** 36.4 ± 4.3 nmol/g

**Q.** What about the “salicylic acid in CSF” value ([3]; intramuscularly, 8 hours) of the same compound?
**A.** 28.2 ± 6.5 nmol/g

**Q.** What about the “salicylic acid in CSF” value ([3]; intramuscularly, 18 hours) of the same compound?
**A.** 15.1 ± 4.7 nmol/g

**Q.** What about the “salicylic acid in CSF” value ([3]; transdermally, 1 hour) of the same compound?
**A.** 38 ± 17 nmol/g

**Q.** What about the “salicylic acid in CSF” value ([3]; transdermally, 8 hours) of the same compound?
**A.** 28.4 ± 7.5 nmol/g

**Q.** What about the “salicylic acid in CSF” value ([3]; transdermally, 18 hours) of the same compound?
**A.** 22.3 ± 5.4 nmol/g
